Assay results from patent publication US12312370B2, “Immunoproteasome inhibitors” (Principia Biopharma Inc., priority 2017, dated 2025).

Tests used:
[1] = target: immunoproteasome LMP7/B5i subunit (Homo sapiens, UniProt P28062); test: Caliper-based proteasome enzymatic activity assay, LMP7; format: biochemical; conditions: human recombinant immunoproteasome 0.3 nM, FAM-labeled peptide substrate 1 μM, rt 3 h; read-out: LMP7 subunit IC50
[2] = target: constitutive proteasome β5c unit (Homo sapiens, UniProt P28074); test: Caliper-based proteasome enzymatic activity assay, β5c; format: biochemical; conditions: human recombinant constitutive proteasome 0.3 nM, FAM-labeled peptide substrate 1 μM, rt 3 h; read-out: β5c subunit IC50
[3] = target: immunoproteasome LPM2/β1i subunit (Homo sapiens, UniProt P28065); test: Caliper-based proteasome enzymatic activity assay, LMP2; format: biochemical; conditions: human recombinant immunoproteasome 0.3 nM, FAM-labeled peptide substrate 1 μM, rt 2 h
PBMC/LMP7 = PBMC/LMP7 (Homo sapiens, UniProt P28062); test: Proteasome-Glo inhibition of proteasome activity in cells, PBMC/LMP7; format: cell-based; conditions: 2 h incubation at 37° C.
Description: The cell-based effects of a compound described herein on the immunoproteasome were determined by measuring inhibition of proteasome activity in cells using the Proteasome-Glo™ Cell-Based Reagent (Promega, Madison WI). The Proteasome-Glo™ assay contains a specific luminogenic proteasome substrate in a buffer optimized for cell permeabilization, proteasome activity, and luciferase activity. For the chymotrypsin-like activity (LMP7 and β5c), the peptide substrate is Suc-LLVY-aminoluciferin (Succinyl-leucine-leucine-valine-tyrosine-aminoluciferin). Cleavage of the substrate by proteasome results in luminescent signal which is proportional to the proteasome activity. The cell line THP-1 (a monocytic leukemia cell line enriched in immunoproteasome), the cell line HT-29 (a colorectal adenocarcinoma cell line enriched in constitutive proteasome), and primary human peripheral blood mononuclear cells (PBMC) were used to assess proteasome activity. Cells were seeded in a 96-well plate at 10,000 cells per well in RPMI 1640 high glucose medium with 10% fetal bovine scrum (FBS). Compound dilutions were added to cells starting at a concentration of 5 uM and decreasing in tripling dilutions. The final DMSO concentration was 1%. The concentration range was adjusted as needed for compounds of different potencies. The cells treated with compounds were incubated for 2 h at 37° C. in 5% CO2. At the end of the 2 hour incubation period, cells were transferred to white 384 well assay plates. 20 uL of Proteasome-Glo™ Reagent was added to each well and incubated for 10 minutes at rt. The plate was read in the Analyst HT instrument (Molecular Devices, Sunnyvale, CA) using luminescence mode. The percent inhibition of activity was plotted as a function of log compound concentration. The IC50 was then calculated for each compound using Prism software from GraphPad Software Inc. (San Diego, CA).

| IC50 [1] | IC50 [2] | IC50 [3] | IC50 (PBMC/LMP7) | Compound |
| --- | --- | --- | --- | --- |
| 4.4 nM | > 5000 nM | > 5000 nM |  | Cc1ccc(C[C@H](NC(=O)NC[C@H]2CCCN2C(=O)C(C#N)=CC(C)(C)C)B(O)O)cc1 [Example 43, ((R)-1-(3-(((R)-1-(2-cyano-4,4-dimethylpent-2-enoyl)pyrrolidin-2-yl)methyl)ureido)-2-(p-tolyl)ethyl)boronic acid] |
| 4530 nM | > 5000 nM | > 5000 nM |  | C=CC(=O)N1CCC[C@H]1CNC(=O)N[C@@H](Cc1ccccc1)B(O)O [Example 37, ((R)-1-(3-(((S)-1-acryloylpyrrolidin-2-yl)methyl)ureido)-2-phenylethyl)boronic acid] |
| 4 nM | 1690 nM | > 5000 nM |  | Cc1ccc(C[C@H](NC(=O)OC[C@H]2CCN(C(=O)C(C#N)=CC(C)(C)C)C2)B(O)O)cc1 [Example 46, ((R)-1-(((((S)-1-(2-cyano-4,4-dimethylpent-2-enoyl)pyrrolidin-3-yl)methoxy)carbonyl)amino)-2-(p-tolyl)ethyl)boronic acid] |
| 12.8 nM | 8.5 nM | 46.3 nM |  | CC(C)C=C(C#N)C(=O)NCCCC[C@H](NC(=O)c1cnccn1)C(=O)N[C@@H](CC(C)C)B(O)O [Example 2, ((R)-1-((S)-6-(2-cyano-4-methylpent-2-enamido)-2-(pyrazine-2-carboxamido)hexanamido)-3-methylbutyl)boronic acid] |
| 22 nM | 308 nM |  | 39 nM | N#CC(=CC1CC1)C(=O)N1CCC[C@@H]1COC[C@H](NCC(F)(F)F)C(=O)N[C@@H](Cc1ccccc1)B(O)O [Example 22, (R)-1-((S)-3-(((R)-1-(2-cyano-3-cyclopropylacryloyl)pyrrolidin-2-yl)methoxy)-2-(2,2,2-trifluoroethylamino)propanamido)-2-phenylethylboronic acid] |
| 113 nM | 1610 nM | 1860 nM |  | C=CC(=O)N1CC[C@H](OC(=O)N[C@@H](Cc2ccccc2)B(O)O)C1 [Example 88, ((R)-1-(((((S)-1-acryloylpyrrolidin-3-yl)oxy)carbonyl)amino)-2-phenylethyl)boronic acid] |
| 12.9 nM | 38.5 nM | 82.7 nM |  | CC(C)C=C(C#N)C(=O)NCCCC[C@H](NC(=O)c1cccc(O)n1)C(=O)N[C@@H](Cc1ccccc1)B(O)O [Example 6, ((R)-1-((S)-6-(2-cyano-4-methylpent-2-enamido)-2-(6-hydroxypicolinamido)hexanamido)-2-phenylethyl)boronic acid] |
| 2.3 nM | 501 nM | > 5000 nM |  | CC(C)(C=C(C#N)C(=O)N1CCC[C@H](OC(=O)N[C@@H](Cc2ccc(F)cc2)B(O)O)C1)N1CCC(F)(F)C1 [Example 78, ((R)-1-(((((S)-1-(2-cyano-4-(3,3-difluoropyrrolidin-1-yl)-4-methylpent-2-enoyl)piperidin-3-yl)oxy)carbonyl)amino)-2-(4-fluorophenyl)ethyl)boronic acid] |
| 4.7 nM | 2070 nM | > 5000 nM |  | CC(C)(C)C=C(C#N)C(=O)N1CCC[C@@H]1CNC(=O)N[C@@H](Cc1coc2ccccc12)B(O)O [Example 45, ((R)-2-(benzofuran-3-yl)-1-(3-(((R)-1-(2-cyano-4,4-dimethylpent-2-enoyl)pyrrolidin-2-yl)methyl)ureido)ethyl)boronic acid] |
| 2.6 nM | 1620 nM | 3190 nM |  | CC(C)(C=C(C#N)C(=O)N1C2CCC1(COC(=O)N[C@@H](Cc1ccccc1)B(O)O)CC2)N1CCC(F)(F)C1 [Example 57, (R)-(1-((((7-(2-cyano-4-(3,3-difluoropyrrolidin-1-yl)-4-methylpent-2-enoyl)-7-azabicyclo[2.2.1]heptan-1-yl)methoxy)carbonyl)amino)-2-phenylethyl)boronic acid] |
| 8.7 nM | 383 nM | 3740 nM |  | CC(C)(C=C(C#N)C(=O)N1CCC[C@@H]1CNC(=O)N[C@@H](Cc1coc2ccccc12)B(O)O)N1CCN(C2COC2)CC1 [Example 48, ((R)-2-(benzofuran-3-yl)-1-(3-(((R)-1-(2-cyano-4-methyl-4-(4-(oxetan-3-yl)piperazin-1-yl)pent-2-enoyl)pyrrolidin-2-yl)methyl)ureido)ethyl)boronic acid] |
| 2.3 nM | 944 nM | > 5000 nM |  | COC(=O)N1CCN(C(C)(C)C=C(C#N)C(=O)N2CCC[C@H](OC(=O)N[C@@H](Cc3ccccc3)B(O)O)C2)CC1 [Example 83, ((R)-1-(((((S)-1-(2-cyano-4-(4-(methoxycarbonyl)piperazin-1-yl)-4-methylpent-2-enoyl)piperidin-3-yl)oxy)carbonyl)amino)-2-phenylethyl)boronic acid] |
| 611 nM | > 5000 nM | > 5000 nM |  | CC(C)C=C(C#N)C(=O)N1CCCC[C@H]1CNC(=O)N[C@@H](Cc1ccccc1)B(O)O [Example 35, ((R)-1-(3-(((S)-1-(2-cyano-4-methylpent-2-enoyl)piperidin-2-yl)methyl)ureido)-2-phenylethyl)boronic acid] |
| > 5000 nM | > 5000 nM | > 5000 nM |  | C=CC(=O)N1CCCC[C@H]1CNC(=O)N[C@@H](Cc1ccccc1)B(O)O [Example 38, ((R)-1-(3-(((S)-1-acryloylpiperidin-2-yl)methyl)ureido)-2-phenylethyl)boronic acid] |
| > 5000 nM | > 5000 nM | > 5000 nM |  | CC(C)C=C(C#N)C(=O)N1CCCC[C@@H]1CNC(=O)N[C@@H](Cc1ccccc1)B(O)O [Example 33, ((R)-1-(3-(((R)-1-(2-cyano-4-methylpent-2-enoyl)piperidin-2-yl)methyl)ureido)-2-phenylethyl)boronic acid] |
| 12.3 nM | 27.4 nM | 115 nM |  | CC(C)C=C(C#N)C(=O)NCCCC[C@H](NC(=O)c1cnccn1)C(=O)N[C@@H](Cc1ccccc1)B(O)O [Example 5, ((R)-1-((S)-6-(2-cyano-4-methylpent-2-enamido)-2-(pyrazine-2-carboxamido)hexanamido)-2-phenylethyl)boronic acid] |
| 2.2 nM | 2850 nM | > 5000 nM |  | Cc1ccc(C[C@H](NC(=O)OC[C@H]2CCCN(C(=O)C(C#N)=CC(C)(C)C)C2)B(O)O)cc1 [Example 44, ((R)-1-(((((S)-1-(2-cyano-4,4-dimethylpent-2-enoyl)piperidin-3-yl)methoxy)carbonyl)amino)-2-(p-tolyl)ethyl)boronic acid] |
| 1.1 nM | 54.6 nM | > 5000 nM |  | CC(C)(C=C(C#N)C(=O)N1CCC[C@H](OC(=O)N[C@@H](Cc2coc3ccccc23)B(O)O)C1)N1CCC(F)(F)C1 [Example 73, ((R)-2-(benzofuran-3-yl)-1-(((((S)-1-(2-cyano-4-(3,3-difluoropyrrolidin-1-yl)-4-methylpent-2-enoyl)piperidin-3-yl)oxy)carbonyl)amino)ethyl)boronic acid] |
| 3.5 nM | 1900 nM | > 5000 nM |  | CC(C)(C=C(C#N)C(=O)N1CCC[C@@H]1CNC(=O)N[C@@H](Cc1coc2ccccc12)B(O)O)N1CCOCC1 [Example 47, ((R)-2-(benzofuran-3-yl)-1-(3-(((R)—1(2-cyano-4-methyl-4-morpholinopent-2-enoyl)pyrrolidin-2-yl)methyl)ureido)ethyl)boronic acid] |
| 669 nM | > 5000 nM | > 5000 nM |  | CC(C)(C)C=C(C#N)C(=O)N1CCCC[C@H]1CNC(=O)N[C@@H](Cc1ccccc1)B(O)O [Example 40, ((R)-1-(3-(((S)-1-(2-cyano-4,4-dimethylpent-2-enoyl)piperidin-2-yl)methyl)ureido)-2-phenylethyl)boronic acid] |
| 30 nM | > 5000 nM | > 5000 nM |  | C=CC(=O)N1CCC[C@@H]1CNC(=O)N[C@@H](Cc1coc2ccccc12)B(O)O [Example 41, ((R)-1-(3-(((R)-1-acryloylpyrrolidin-2-yl)methyl)ureido)-2-(benzofuran-3-yl)ethyl)boronic acid] |

| Compound | IC50 [1] | IC50 [2] | IC50 [3] | IC50 (PBMC/LMP7) |
| --- | --- | --- | --- | --- |
| CC(C)(C)C=C(C#N)C(=O)N1CCC[C@H]1CNC(=O)N[C@@H](Cc1ccccc1)B(O)O [Example 39, ((R)-1-(3-(((S)-1-(2-cyano-4,4-dimethylpent-2-enoyl)pyrrolidin-2-yl)methyl)ureido)-2-phenylethyl)boronic acid] | 78.8 nM | > 5000 nM | > 5000 nM |  |
| CC(C)C=C(C#N)C(=O)N1CCC[C@H]1CNC(=O)N[C@@H](Cc1ccccc1)B(O)O [Example 34, ((R)-1-(3-(((S)-1-(2-cyano-4-methylpent-2-enoyl)pyrrolidin-2-yl)methyl)ureido)-2-phenylethyl)boronic acid] | 231 nM | > 5000 nM | > 5000 nM |  |
